The text below walks through data of patent US8716236B2, “Inhibitors of IAP” (Genentech, Inc., priority 2012, dated 2014).

The test system of this experiment is human breast MDA-MB-231•X1 cells. In words: Tumor xenograft study. The experiment is classed as in vivo, mouse. Particulars: MDA-MB-231•X1 xenograft in female nude mice, iv Qwk. The procedure:
All procedures involving animals were performed in accordance with the guidelines of the Genentech Institutional Animal Care and Use Committee. Cancer cells such as Human breast MDA-MB-231, colorectal, Colo205, or NSCLC, Calu6 cancer cells were obtained from American Type Culture Collection (Manassas, Va.). Cells were resuspended in HBSS (Colo205) or the cell suspension was mixed 1:1 with Matrigel (BD Biosciences; MDA-MB-231, Calu6). The cells (1.5×10^7 for MDA-MB-231; 5.0×10^7 for Colo205, Calu6) were then implanted subcutaneously into the right flank of female nude mice (Charles River Laboratories, Hollister, Calif.) aged 6-8 weeks. Tumor volumes were calculated using the mean diameter measured with vernier calipers using the formula v=0.5×a×b^2, were a and b are the largest and smallest perpendicular tumor diameters, respectively. Ten mice with the appropriate mean tumor volume were assigned randomly to each of six groups. The mean tumor volume±the standard error of the mean (SEM) for all six groups was 168±3 mm^3 at the initiation of treatment (Day 0). The mice were observed on each day of the study, and tumor volumes and body weights were measured twice each week.

For the compound `CN[C@@H](C)C(=O)N[C@H](C(=O)N1CCCC1C(=O)Nc1snnc1-c1ccccc1)C1CCCCC1` (some centres unmarked) [III], the MED was found to be 18.6 mg/kg.

Take `CN[C@@H](C)C(=O)N[C@H](C(=O)N1CCC[C@H]1C(=O)Nc1sc(-c2ncco2)nc1-c1ccccc1)C1CCCCC1` [Ia, (S)-1-[(S)-2-cyclohexyl-2-((S)-2-methylamino-propionylamino)-acetyl]-pyrrolidine-2-carboxylic acid (2-oxazol-2-yl-4-phenyl-thiazol-5-yl)-amide]: the MED stood at 3.4 mg/kg.
